Calls of active or inactive are those of the source. The calls are words filed in the database; no cut-off is given here.
Key:
[1] = biological target: Polyprotein P1234 (Chikungunya virus (strain S27-African prototype) (CHIKV)) (UniProt Q8JUX6); experiment: Inhibition of CHIKV nsP2 protease at 1 mM by FRET assay relative to control
[2] = biological target: Polyprotein P1234 (Chikungunya virus (strain S27-African prototype) (CHIKV)) (UniProt Q8JUX6); experiment: Reversible binding affinity to CHIKV nsP2 protease at 10 uM preincubated with compound followed by 100 fold dilution and subsequent addition of substrate by jump-dilution assay
Polyprotein P1234 = Polyprotein P1234 (Chikungunya virus (strain S27-African prototype) (CHIKV), UniProt Q8JUX6); experiment: Inhibition of CHIKV nsP2 protease by FRET assay
Chain of Polyprotein P1234 (Q8JUX6 536-1333 limits assumed): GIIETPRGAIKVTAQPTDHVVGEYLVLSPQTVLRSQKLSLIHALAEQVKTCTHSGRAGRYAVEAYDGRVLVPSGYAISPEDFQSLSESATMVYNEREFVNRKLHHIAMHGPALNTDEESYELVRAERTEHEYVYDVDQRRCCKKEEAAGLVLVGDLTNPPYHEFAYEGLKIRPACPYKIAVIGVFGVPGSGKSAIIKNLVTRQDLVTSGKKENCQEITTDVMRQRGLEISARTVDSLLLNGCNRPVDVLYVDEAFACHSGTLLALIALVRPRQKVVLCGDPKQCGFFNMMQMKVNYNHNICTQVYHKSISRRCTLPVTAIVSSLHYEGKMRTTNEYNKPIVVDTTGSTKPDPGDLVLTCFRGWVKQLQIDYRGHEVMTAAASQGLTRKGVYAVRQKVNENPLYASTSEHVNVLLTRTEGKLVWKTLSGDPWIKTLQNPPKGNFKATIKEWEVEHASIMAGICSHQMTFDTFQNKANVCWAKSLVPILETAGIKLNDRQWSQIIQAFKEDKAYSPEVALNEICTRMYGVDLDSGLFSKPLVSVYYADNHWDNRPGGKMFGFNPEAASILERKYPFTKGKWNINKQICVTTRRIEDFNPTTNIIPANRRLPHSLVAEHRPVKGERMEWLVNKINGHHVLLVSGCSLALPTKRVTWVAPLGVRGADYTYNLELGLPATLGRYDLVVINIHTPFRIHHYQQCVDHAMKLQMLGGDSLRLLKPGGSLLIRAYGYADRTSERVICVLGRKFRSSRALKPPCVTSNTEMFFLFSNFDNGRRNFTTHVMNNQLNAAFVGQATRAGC

[3] = biological target: Polyprotein P1234 (Chikungunya virus (strain S27-African prototype) (CHIKV)) (UniProt Q8JUX6); experiment: Irreversible binding affinity to CHIKV nsP2 protease at 10 uM preincubated with compound followed by 100 fold dilution and subsequent addition of substrate by jump-dilution assay
[4] = biological target: Replicase polyprotein 1ab (Severe acute respiratory syndrome coronavirus 2) (UniProt P0DTD1); experiment: Inhibition of SARS-CoV-2 PLpro at 1 mM by FRET analysis
[5] = biological target: Polyprotein P1234 (Chikungunya virus (strain S27-African prototype) (CHIKV)) (UniProt Q8JUX6); experiment: Binding affinity to CHIKV nsP2 protease assessed as covalent modification by mass spectrometry
[6] = biological target: Polyprotein P1234 (Sindbis virus) (UniProt P03317); experiment: Inhibition of SINV nsP2pro at 1 mM by FRET analysis

Chain of Polyprotein P1234 (Chikungunya virus (strain S27-African prototype) (CHIKV)) (Q8JUX6 whole entry): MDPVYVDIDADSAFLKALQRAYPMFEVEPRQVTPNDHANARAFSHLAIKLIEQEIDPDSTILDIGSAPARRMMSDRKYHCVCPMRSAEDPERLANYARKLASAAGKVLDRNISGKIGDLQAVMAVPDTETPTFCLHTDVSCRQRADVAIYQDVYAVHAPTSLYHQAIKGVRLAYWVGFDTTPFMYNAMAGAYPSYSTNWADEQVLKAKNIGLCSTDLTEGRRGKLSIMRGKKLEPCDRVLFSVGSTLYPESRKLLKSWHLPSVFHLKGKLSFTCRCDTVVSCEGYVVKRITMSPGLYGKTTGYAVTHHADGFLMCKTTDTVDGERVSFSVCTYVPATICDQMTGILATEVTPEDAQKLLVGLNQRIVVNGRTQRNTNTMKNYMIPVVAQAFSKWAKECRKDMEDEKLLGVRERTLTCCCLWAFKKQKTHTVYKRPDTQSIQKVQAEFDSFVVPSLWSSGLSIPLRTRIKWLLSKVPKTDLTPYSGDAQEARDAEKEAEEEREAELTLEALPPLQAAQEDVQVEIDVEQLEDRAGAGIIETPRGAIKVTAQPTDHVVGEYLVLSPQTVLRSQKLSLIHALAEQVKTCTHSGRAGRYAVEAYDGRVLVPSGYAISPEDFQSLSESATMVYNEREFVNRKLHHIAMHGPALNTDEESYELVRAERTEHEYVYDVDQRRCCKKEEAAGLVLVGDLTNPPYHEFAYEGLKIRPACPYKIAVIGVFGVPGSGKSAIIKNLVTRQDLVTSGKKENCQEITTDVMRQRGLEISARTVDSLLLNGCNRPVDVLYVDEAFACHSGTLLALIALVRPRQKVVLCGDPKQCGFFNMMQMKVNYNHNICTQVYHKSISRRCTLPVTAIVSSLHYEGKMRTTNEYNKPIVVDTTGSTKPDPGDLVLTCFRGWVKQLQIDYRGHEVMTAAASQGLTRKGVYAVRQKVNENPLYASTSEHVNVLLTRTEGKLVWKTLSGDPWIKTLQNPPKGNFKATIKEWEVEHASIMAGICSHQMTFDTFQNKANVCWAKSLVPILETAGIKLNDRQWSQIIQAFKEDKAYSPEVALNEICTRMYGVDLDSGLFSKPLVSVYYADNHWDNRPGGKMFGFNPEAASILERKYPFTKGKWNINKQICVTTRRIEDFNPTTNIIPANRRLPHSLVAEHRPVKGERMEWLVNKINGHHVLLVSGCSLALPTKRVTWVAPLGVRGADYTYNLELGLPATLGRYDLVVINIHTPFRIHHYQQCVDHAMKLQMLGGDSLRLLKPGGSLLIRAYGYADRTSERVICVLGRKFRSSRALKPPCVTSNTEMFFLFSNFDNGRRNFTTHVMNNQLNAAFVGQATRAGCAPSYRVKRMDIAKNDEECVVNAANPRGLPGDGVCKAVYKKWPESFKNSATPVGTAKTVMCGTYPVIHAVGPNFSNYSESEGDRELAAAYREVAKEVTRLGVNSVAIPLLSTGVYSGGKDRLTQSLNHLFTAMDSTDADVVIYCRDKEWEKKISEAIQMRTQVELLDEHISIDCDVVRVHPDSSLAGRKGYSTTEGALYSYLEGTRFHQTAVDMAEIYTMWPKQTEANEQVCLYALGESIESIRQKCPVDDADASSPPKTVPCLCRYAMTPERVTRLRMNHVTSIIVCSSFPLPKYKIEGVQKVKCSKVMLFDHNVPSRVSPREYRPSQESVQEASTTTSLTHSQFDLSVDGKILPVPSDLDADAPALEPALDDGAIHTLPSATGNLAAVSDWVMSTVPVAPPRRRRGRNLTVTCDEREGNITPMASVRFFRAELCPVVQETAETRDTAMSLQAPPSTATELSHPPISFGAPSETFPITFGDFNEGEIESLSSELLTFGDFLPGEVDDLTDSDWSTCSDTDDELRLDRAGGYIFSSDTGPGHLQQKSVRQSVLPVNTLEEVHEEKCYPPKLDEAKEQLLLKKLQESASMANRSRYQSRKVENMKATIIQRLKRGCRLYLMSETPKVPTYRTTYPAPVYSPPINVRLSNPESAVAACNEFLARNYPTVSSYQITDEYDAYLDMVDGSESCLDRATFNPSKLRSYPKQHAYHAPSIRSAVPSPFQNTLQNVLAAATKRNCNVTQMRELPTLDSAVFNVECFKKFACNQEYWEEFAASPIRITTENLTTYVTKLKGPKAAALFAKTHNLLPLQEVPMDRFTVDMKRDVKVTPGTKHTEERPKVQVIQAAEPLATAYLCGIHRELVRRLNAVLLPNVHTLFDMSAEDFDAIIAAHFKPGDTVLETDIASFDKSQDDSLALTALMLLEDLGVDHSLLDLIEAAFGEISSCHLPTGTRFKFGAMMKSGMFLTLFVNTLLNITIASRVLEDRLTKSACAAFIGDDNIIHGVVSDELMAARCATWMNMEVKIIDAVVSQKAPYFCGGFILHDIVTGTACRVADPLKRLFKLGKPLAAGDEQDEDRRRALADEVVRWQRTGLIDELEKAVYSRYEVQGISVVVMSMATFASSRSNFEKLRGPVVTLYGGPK

**Q.** C=CC(=O)Nc1ccc(OC)c(OC(=O)C=C)c1 was tested. Which inhibition [1] did it give?
**A.** Its inhibition is greater than 40%.

**Q.** How did the inhibition [1] turn out when C=CC(=O)NCc1ccccc1 was run?
**A.** Its inhibition is less than 40%.

**Q.** Which inhibition [1] does the source give for C=CC(=O)NCc1ccc(Cl)cc1 here?
**A.** The inhibition was less than 40%.

**Q.** How did the inhibition [1] turn out when C=CC(=O)NCCc1ccccc1 was run?
**A.** The inhibition was less than 40%.

**Q.** C=CC(=O)N[C@H](C)c1ccccc1 was tested. Which inhibition [1] did it give?
**A.** The inhibition was less than 40%.

**Q.** How did the inhibition [1] turn out when C=CC(=O)N(C)Cc1ccccc1 was run?
**A.** Its inhibition is less than 40%.

**Q.** C=CC(=O)N[C@@H]1CCCC[C@H]1NC(=O)C=C was tested. Which inhibition [1] did it give?
**A.** The inhibition was less than 40%.

**Q.** For C=CC(=O)Nc1ccc([N+](=O)[O-])cc1, which inhibition [1] is on record?
**A.** The inhibition was 100%.

**Q.** For C=CC(=O)N[C@@H](C)c1ccccc1, which inhibition [1] is on record?
**A.** Its inhibition is less than 40%.

**Q.** With C=CC(=O)NCc1ccc(C(C)(C)C)cc1 as the compound, how does the inhibition [1] read?
**A.** The inhibition was less than 40%.

**Q.** For C=CC(=O)N1CCN(C(=O)OC(C)(C)C)CC1, which inhibition [1] is on record?
**A.** Its inhibition is less than 40%.

**Q.** C=CC(=O)N(C(C)C)C1CCCCC1 was tested. Which inhibition [1] did it give?
**A.** Its inhibition is less than 40%.

**Q.** Which inhibition [1] does the source give for C=CC(=O)NCCc1ccc(O)cc1 here?
**A.** The inhibition was less than 40%.

**Q.** C=CC(=O)NC1CCCCC1 was tested. Which inhibition [1] did it give?
**A.** Its inhibition is less than 40%.

**Q.** What does the source list for CCC(=O)Nc1ccc(Br)cc1?
**A.** inhibition [1]: < 40%; Activity [2]: Active

**Q.** For C=CC(=O)NCc1cccc(C(F)(F)F)c1, which inhibition [1] is on record?
**A.** The inhibition was greater than 40%.

**Q.** And the IC50 (Polyprotein P1234)?
**A.** Its IC50 is 1.3 mM.

**Q.** What about the Activity [3] of the same compound?
**A.** Its Activity is “Active”.

**Q.** C=CC(=O)NCc1ccc2c(c1)OCO2 was tested. Which inhibition [1] did it give?
**A.** The inhibition was less than 40%.

**Q.** How did the inhibition [1] turn out when C=CC(=O)Nc1ccc(OC)c(O)c1 was run?
**A.** Its inhibition is greater than 40%.

**Q.** With C=CC(=O)N[C@H]1CCc2ccccc21 as the compound, how does the inhibition [1] read?
**A.** Its inhibition is less than 40%.

**Q.** For C=CC(=O)Nc1ccccc1, which inhibition [1] is on record?
**A.** The inhibition was less than 40%.

**Q.** C=CC(=O)Nc1ccc(OC)cc1 was tested. Which inhibition [1] did it give?
**A.** The inhibition was less than 40%.

**Q.** For C=CC(=O)NCc1ccc(OC)cc1, which inhibition [1] is on record?
**A.** The inhibition was less than 40%.

**Q.** C=CC(=O)Nc1ccc(OC)c(OC)c1 was tested. Which inhibition [1] did it give?
**A.** Its inhibition is less than 40%.

**Q.** With CCC(=O)NCc1cccc(C(F)(F)F)c1 as the compound, how does the inhibition [1] read?
**A.** The inhibition was less than 40%.

**Q.** And the Activity [2]?
**A.** Its Activity is “Active”.

**Q.** Which inhibition [1] does the source give for C=CC(=O)Nc1c(CC(C)C)cccc1CC(C)C here?
**A.** Its inhibition is less than 40%.

**Q.** C=CC(=O)Nc1ccc(Br)cc1 was tested. Which inhibition [4] did it give?
**A.** Its inhibition is “inactive”.

**Q.** And the inhibition [1]?
**A.** Its inhibition is greater than 40%.

**Q.** What about the Activity [5] of the same compound?
**A.** The Activity was 17%.

**Q.** What about the IC50 (Polyprotein P1234) of the same compound?
**A.** The IC50 was 1.3 mM.

**Q.** And the inhibition [6]?
**A.** The inhibition was “Active; Inhibition Is Weaker Than Chikv Nsp2Pro”.

**Q.** What about the Activity [3] of the same compound?
**A.** Its Activity is “Active”.

**Q.** Which inhibition [1] does the source give for C=CC(=O)Nc1cccc(C)c1C here?
**A.** Its inhibition is less than 40%.

**Q.** C=CC(=O)NCc1ccc(Br)cc1F was tested. Which inhibition [1] did it give?
**A.** The inhibition was less than 40%.

**Q.** For C=CC(=O)NCc1ccc(Cl)cc1F, which inhibition [1] is on record?
**A.** Its inhibition is less than 40%.

**Q.** C=CC(=O)NCc1ccc(C(F)(F)F)cc1 was tested. Which inhibition [1] did it give?
**A.** The inhibition was less than 40%.

**Q.** For C=CC(=O)Nc1ccc(I)cc1, which inhibition [1] is on record?
**A.** The inhibition was greater than 40%.

**Q.** How did the inhibition [1] turn out when C=CC(=O)NCCc1c[nH]c2ccccc12 was run?
**A.** Its inhibition is greater than 40%.

**Q.** With C=CC(=O)NCc1ccc(F)cc1 as the compound, how does the inhibition [1] read?
**A.** The inhibition was less than 40%.

**Q.** How did the inhibition [4] turn out when C=CC(=O)NCc1ccccc1Cl was run?
**A.** The inhibition was “inactive”.

**Q.** What about the inhibition [6] of the same compound?
**A.** The inhibition was “Active; Inhibition Is Weaker Than Chikv Nsp2Pro”.

**Q.** With C=CC(=O)Nc1ccc(OC)cc1[N+](=O)[O-] as the compound, how does the inhibition [1] read?
**A.** Its inhibition is greater than 40%.
